From ChEMBL document CHEMBL4831518, “Structure-aided optimization of non-nucleoside M. tuberculosis thymidylate kinase inhibitors” (Eur J Med Chem, 2021)

What was measured:
[1] = system: Mycobacterium tuberculosis; experiment: Antimycobacterial activity against Mycobacterium tuberculosis H37Rv ATCC 27294 assessed as inhibition of bacterial growth in presence of glucose by broth microdilution method; format: functional
[2] = system: MRC5; experiment: Cytotoxicity against human MRC-5 cells assessed as reduction in cell growth measured after 3 days by resazurin dye based fluorometric analysis; settings: MRC5, 72 h
[3] = target: T1, Thymidylate kinase (Mycobacterium tuberculosis, UniProt P9WKE1); experiment: Inhibition of Mycobacterium tuberculosis H37Rv TMPK expressed in Escherichia coli by coupled enzyme based spectrophotometric analysis
T1 sequence (P9WKE1 whole entry): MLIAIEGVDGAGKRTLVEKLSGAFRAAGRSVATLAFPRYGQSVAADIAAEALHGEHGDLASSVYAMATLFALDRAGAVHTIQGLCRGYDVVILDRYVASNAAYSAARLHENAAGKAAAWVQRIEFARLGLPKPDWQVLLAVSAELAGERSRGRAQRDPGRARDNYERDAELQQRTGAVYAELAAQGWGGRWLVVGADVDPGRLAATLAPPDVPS

[4] = target: T2, Thymidylate kinase (Homo sapiens, UniProt P23919); experiment: Inhibition of human TMPK at 40 uM
T2 sequence (P23919 whole entry): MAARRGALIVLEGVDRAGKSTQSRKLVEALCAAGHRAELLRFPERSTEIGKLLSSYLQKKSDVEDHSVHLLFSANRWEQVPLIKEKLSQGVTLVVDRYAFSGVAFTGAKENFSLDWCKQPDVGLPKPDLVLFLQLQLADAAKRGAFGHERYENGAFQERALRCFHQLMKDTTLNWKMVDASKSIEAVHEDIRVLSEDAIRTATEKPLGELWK

[5] = system: Mycobacterium tuberculosis; experiment: Antibacterial activity againstMycobacterium tuberculosis H37Rv assessed as inhibition of bacterial growth in presence of efflux pump inhibitor PAbetaN and glucose […] by microdilution assay; format: functional
[6] = system: Mycobacterium tuberculosis; experiment: Antibacterial activity against Mycobacterium tuberculosis H37Rv assessed as inhibition of bacterial growth in presence of efflux pump inhibitor verapamil and glucose […] by microdilution assay; format: functional
[7] = target: T2, Thymidylate kinase; experiment: Inhibition of human TMPK at 31 uM
[8] = Mycobacterium tuberculosis, H37Rv ATCC 27294, read-out: MIC
[9] = Mycobacterium tuberculosis, H37Rv, read-out: MIC

Cc1cn(C2CCN(Cc3cccc(OC4CCCCC4)c3)CC2)c(=O)[nH]c1=O
MIC [1, 8]: 37 µM | IC50 [2]: 23.6 µM | IC50 [3]: 42 µM

Cc1cn(C2CCN(Cc3cccc(Oc4cccnc4)c3)CC2)c(=O)[nH]c1=O
MIC [1, 8]: > 50 µM | IC50 [2]: > 64 µM | IC50 [3]: 27 µM

Cc1cn(C2CCN(Cc3cccc(Oc4ccc(Cl)c(Cl)c4)c3)CC2)c(=O)[nH]c1=O
inhibition (INH) [4]: Not Active | MIC [1, 8]: 12.5 µM | IC50 [2]: 6.1 µM | IC50 [3]: 1.1 µM

COc1cccc(Oc2cccc(CN3CCC(n4cc(C)c(=O)[nH]c4=O)CC3)c2)c1
MIC [1, 8]: 25 µM | IC50 [2]: 25.3 µM | IC50 [3]: 1.2 µM

Cc1cn(C2CCN(Cc3cccc(Oc4cccc(Cl)c4)n3)CC2)c(=O)[nH]c1=O
inhibition (INH) [4]: Not Active | MIC [1, 8]: 31 µM | IC50 [2]: > 64 µM | IC50 [3]: 0.45 µM

Cc1cn(C2CCN(Cc3cccc(Oc4cccc(OC(F)(F)F)c4)c3)CC2)c(=O)[nH]c1=O
inhibition (INH) [4]: Not Active | MIC [1, 8]: 25 µM | IC50 [2]: 5.26 µM | IC50 [3]: 0.65 µM

Cc1cn(C2CCN(Cc3cccc(Oc4cccc(Cl)c4)c3)CC2)c(=O)[nH]c1=O
MIC [1, 8]: 12.5 µM | IC50 [2]: 21 µM | IC50 [3]: 0.89 µM

Cc1cn(C2CCN(Cc3cccc(Oc4ccc(Cl)cc4)c3)CC2)c(=O)[nH]c1=O
MIC [1, 8]: 12.5 µM | IC50 [2]: 25.1 µM | IC50 [3]: 6.9 µM

Cc1cn(C2CCN(Cc3cc(Oc4cccc(Cl)c4)ccn3)CC2)c(=O)[nH]c1=O
MIC [1, 8]: > 50 µM | IC50 [2]: > 64 µM | IC50 [3]: 2.8 µM

Cc1cn(C2CCN(Cc3cccc(Oc4cc(C(F)(F)F)cc(C(F)(F)F)c4)c3)CC2)c(=O)[nH]c1=O
MIC [1, 8]: > 50 µM | IC50 [3]: 0.14 µM

Cc1cn(C2CCN(Cc3cncc(Oc4cccc(Cl)c4)c3)CC2)c(=O)[nH]c1=O
MIC [1, 8]: 31 µM | IC50 [2]: > 64 µM | IC50 [3]: 0.77 µM

Cc1cn(C2CCN(Cc3cccc(Oc4cc(Cl)cc(Cl)c4)c3)CC2)c(=O)[nH]c1=O
MIC [5]: 7.8 µg/mL | inhibition (INH) [4]: Not Active | MIC [1, 8]: 12.5 µM | IC50 [2]: 6.73 µM | IC50 [3]: 0.12 µM | MIC [6, 9]: 7.8 µg/mL

Cc1cn(C2CCN(Cc3cccc(OC4CCCC4)c3)CC2)c(=O)[nH]c1=O
MIC [1, 8]: > 50 µM | IC50 [2]: 30.3 µM | IC50 [3]: 32 µM

Cc1cn(C2CCN(Cc3cccc(Oc4ccccc4)n3)CC2)c(=O)[nH]c1=O
MIC [5]: 62.5 µg/mL | MIC [1, 8]: > 50 µM | IC50 [2]: > 64 µM | MIC [6, 9]: 125 µg/mL

Cc1ccc(Oc2cccc(CN3CCC(n4cc(C)c(=O)[nH]c4=O)CC3)c2)cc1
MIC [5]: 15.6 µg/mL | MIC [1, 8]: 31.2 µM | IC50 [2]: > 64 µM | IC50 [3]: 12 µM | MIC [6, 9]: 15.6 µg/mL

Cc1cn(C2CCN(Cc3cc(Oc4cc(Cl)cc(Cl)c4)ccn3)CC2)c(=O)[nH]c1=O
MIC [1, 8]: 34 µM | IC50 [3]: 0.6 µM

COc1ccc(Oc2cccc(CN3CCC(n4cc(C)c(=O)[nH]c4=O)CC3)c2)cc1
MIC [5]: 15.6 µg/mL | MIC [1]: 31.25 µM | IC50 [2]: 28 µM | IC50 [3]: 10.5 µM | MIC [6, 9]: 15.6 µg/mL

Cc1cn(C2CCN(Cc3ccnc(Oc4ccccc4)c3)CC2)c(=O)[nH]c1=O
MIC [1, 8]: > 50 µM | IC50 [2]: > 64 µM | IC50 [3]: 10.2 µM

Cc1cn(C2CCN(Cc3cccc(Oc4ccc(Cl)c(C(F)(F)F)c4)c3)CC2)c(=O)[nH]c1=O
inhibition (INH) [4]: Not Active | MIC [1, 8]: 25 µM | IC50 [2]: 5.28 µM | IC50 [3]: 1.1 µM

Cc1cn(C2CCN(Cc3cc(Oc4ccccc4)ccn3)CC2)c(=O)[nH]c1=O
MIC [1, 8]: > 50 µM | IC50 [2]: > 64 µM | IC50 [3]: 8.7 µM

Cc1cn(C2CCN(Cc3cccc(Oc4ccccn4)c3)CC2)c(=O)[nH]c1=O
MIC [1, 8]: > 50 µM | IC50 [2]: > 64 µM | IC50 [3]: 41 µM

Cc1cn(C2CCN(Cc3cccc(Oc4ccncc4)c3)CC2)c(=O)[nH]c1=O
IC50 [3]: 20 µM

Cc1cn(C2CCN(Cc3cccc(Oc4cccc(O)c4)c3)CC2)c(=O)[nH]c1=O
IC50 [2]: > 64 µM

Cc1cn(C2CCN(Cc3cccc(Oc4ccc(O)cc4)n3)CC2)c(=O)[nH]c1=O
MIC [1, 8]: > 50 µM | IC50 [3]: 1.1 µM

Cc1cn(C2CCN(Cc3cncc(Oc4ccccc4)c3)CC2)c(=O)[nH]c1=O
MIC [1, 8]: 37 µM | IC50 [2]: > 64 µM | IC50 [3]: 6.4 µM

Cc1cn(C2CCN(Cc3cccc(Oc4cccc(C(F)(F)F)c4)c3)CC2)c(=O)[nH]c1=O
MIC [1, 8]: 19 µM | IC50 [2]: 12.4 µM | IC50 [3]: 0.6 µM

Cc1cn(C2CCN(Cc3cccc(Oc4ccccc4C(=O)O)n3)CC2)c(=O)[nH]c1=O
MIC [1, 8]: > 50 µM | IC50 [3]: 25 µM

Cc1cn(C2CCN(Cc3cccc(Oc4ccc(F)c(F)c4)c3)CC2)c(=O)[nH]c1=O
MIC [1, 8]: 19 µM | IC50 [2]: > 64 µM | IC50 [3]: 2.6 µM

Cc1cn(C2CCN(Cc3ccnc(Oc4cccc(Cl)c4)c3)CC2)c(=O)[nH]c1=O
MIC [5]: 15.6 µg/mL | MIC [1, 8]: 37 µM | IC50 [2]: > 64 µM | IC50 [3]: 3.1 µM | MIC [6]: 31.25 µg/mL

Cc1cccc(Oc2cccc(CN3CCC(n4cc(C)c(=O)[nH]c4=O)CC3)c2)c1
MIC [1, 8]: 37 µM | IC50 [2]: > 64 µM | IC50 [3]: 26 µM

Cc1cn(C2CCN(Cc3cccc(Oc4cccc(F)c4)c3)CC2)c(=O)[nH]c1=O
MIC [1, 8]: 25 µM | IC50 [2]: > 64 µM | IC50 [3]: 2.9 µM

Cc1cn(C2CCN(Cc3cncc(Oc4cccc(OC(F)(F)F)c4)c3)CC2)c(=O)[nH]c1=O
MIC [1, 8]: 37 µM | IC50 [2]: > 64 µM | IC50 [3]: 0.81 µM

Cc1cn(C2CCN(Cc3cccc(Oc4cc(F)cc(F)c4)c3)CC2)c(=O)[nH]c1=O
MIC [1, 8]: > 50 µM | IC50 [2]: > 64 µM | IC50 [3]: 2.8 µM

Cc1cn(C2CCN(Cc3cncc(Oc4cc(Cl)cc(Cl)c4)c3)CC2)c(=O)[nH]c1=O
inhibition (INH) [7]: Not Active | MIC [1, 8]: 43 µM | IC50 [2]: > 64 µM | IC50 [3]: 0.22 µM

Cc1cn(C2CCN(Cc3cccc(Oc4ccccc4)c3)CC2)c(=O)[nH]c1=O
IC50 [3]: 6.1 µM
